In general, IC50 refers to the concentration at which inhibition is half-maximal. Read a low IC50 as inhibition by little substance.

The values below come from patent US20220220152A1, “BIVALENT ANTAGONISTS OF INHIBITORS OF APOPTOSIS PROTEINS” (Hepagene Therapeutics (HK) Limited, priority 2019, published 2022).

One test deals with T1, cIAP2-BIR3 (Homo sapiens, UniProt Q13489).
T1 construct: cIAP2-BIR3; purchased Reaction Biology APT-11-372
As to the kind of experiment: cIAP2-BIR3 fluorescence polarization binding assay. Conditions: FP, probe AbuRPFK-5FAM (SM5F) 5 nM, cIAP2-BIR3 80 nM, 60 min at 25° C. The source says: (§1) IAPs are one main cause of cancer development and may result from overexpression of anti-apoptotic proteins. This protocol establishes three binding assays for […] Bir3 domain, cIAP1 and cIAP2 using FP (fluorescence polariation) technology. The fluorescence probe used is a synthetic peptide conjugated to 5-carboxyfluorescein (AbuRPFK-5FAM). The fluorescence polarization value (mP) was detected by Envision, which was used to reflect the binding degree of protein and fluorescent marker.
(§2) • a. Prepare 100 times of the final cpd concentration in appropriate tube and transfer 5 uL cpd to 45 μL 1× reaction buffer with 10% DMSO • b. The final reference cpd concentration is 10000, 3333.3, 1111.1, 370.4, 123.4, 41.2, 13.7, 4.57, 1.52, 0.51, 0.17 and 0 nM. So the 100 times of the concentration is 1000, 333.3, 111.1, 37.04, 12.34, 4.12, […], 0.15, 0.05, 0.017 and 0 μM. The final test cpds concentration is 3333.3, 1111.1, 370.4, 123.4, 41.2, 13.7, 4.57, 1.52, 0.51, 0.17, 0.057 and 0 nM. So the 100 times of the concentration is 333.3, 111.1, 37.04, 12.34, 4.12, […], 0.15, 0.05, 0.017, 0.0057 and […] • c. Add 8 μL/well each dose enzyme to 384 wen microplate (ProxiPlate-384 F Plus, 6008260) using multichannel pipette, prepared in Table 3. • d. Centrifuge at 1000 rpm • e. Add 2 μL/well cpd to 384 well microplate (ProxiPlate-384 F Plus, 6008260) using multichannel pipette, prepared in step a). • f. Centrifuge at 1000 rpm RT, 15 min. • g Start the assay by adding 10 uL/well substrate (prepared in Table 4) to the same 384 wen microplate using multichannel pipette. • h. Centrifuge at 1000 rpm. • i. Cover the assay plate and incubate for 60 min at 25° C. • j. Read on Envision 2104 for mP and plot the IC50s with mP values. • k. Data analysis: IC50s were determined based on a non-linear regression analysis of data collected.
Background: Polarisation of emitted light reports the rotation of a fluorescent probe.

The target in another test is T2, cIAP1-BIR3 (Homo sapiens, UniProt Q13490).
T2 construct: cIAP1-BIR3; purchased Reaction Biology APT-11-370
Briefly: cIAP1-BIR3 fluorescence polarization binding assay. The settings on record: FP, probe AbuRPFK-5FAM (SM5F) 5 nM, cIAP1-BIR3 15 nM, 60 min at 25° C.
Source text: as §1, §2

For another test, the target named is T3, XIAP-BIR3 (Homo sapiens, UniProt P98170).
T3 construct: XIAP-BIR3; purchased Reaction Biology APT-11-374
As to the kind of experiment: XIAP-BIR3 fluorescence polarization binding assay. Conditions: FP, probe AbuRPFK-5FAM (SM5F) 5 nM, XIAP-BIR3 40 nM, 60 min at 25° C.
Source text: as §1, §2

T3 sequence (P98170 241-356 limits assumed): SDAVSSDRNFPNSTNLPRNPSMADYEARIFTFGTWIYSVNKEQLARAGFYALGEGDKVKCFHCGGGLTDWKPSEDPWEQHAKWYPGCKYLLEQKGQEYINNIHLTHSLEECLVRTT
T1 sequence (Q13489 238-349 limits assumed): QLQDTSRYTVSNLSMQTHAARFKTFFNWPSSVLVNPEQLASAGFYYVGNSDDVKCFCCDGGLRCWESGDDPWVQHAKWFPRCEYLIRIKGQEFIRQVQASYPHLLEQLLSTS
T2 sequence (Q13490 253-363 limits assumed): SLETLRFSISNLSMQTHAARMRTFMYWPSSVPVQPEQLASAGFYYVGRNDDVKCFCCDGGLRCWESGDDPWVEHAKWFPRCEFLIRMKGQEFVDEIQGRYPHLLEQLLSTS

On to `CN[C@@H](C)C(=O)N[C@H](C(=O)N1CCC[C@H]1C(=O)N[C@@H]1CCCc2c(Oc3cccc4c3CCC[C@H]4NC(=O)[C@@H]3CCCN3C(=O)[C@@H](NC(=O)[C@H](C)NC)C(C)C)cccc21)C(C)C` [Compound X-B, (S)-1-(Methyl-L-alanyl-L-valyl)-N—((R)-5-(((R)-5-((S)-1-(methyl-L-alanyl-L-valyl)pyrrolidine-2-carboxamido)-5,6,7,8-tetrahydronaphthalen-1-yl)oxy)-1,2,3,4-tetrahydronaphthalen-1-yl)pyrrolidine-2-carboxamide], for which the values for the IC50 at cIAP2-BIR3, at cIAP1-BIR3 and on XIAP-BIR3 were 10 to 100 nM, 1 to 10 nM and 10 to 100 nM, respectively.
Turning to `CN[C@@H](C)C(=O)N[C@H](C(=O)N1CCC[C@H]1C(=O)N[C@@H]1CCCc2c(NC(=O)c3cccc4c3CCC[C@H]4NC(=O)[C@@H]3CCCN3C(=O)[C@@H](NC(=O)[C@H](C)NC)C3CCCCC3)cccc21)C1CCCCC1` [Compound VII, (S)-1-((S)-2-Cyclohexyl-2-((S)-2-(methylamino)propanamido)acetyl)-N—((R)-5-(((R)-5-((S)-1-((S)-2-cyclohexyl-2-((S)-2-(methylamino)propanamido)acetyl)pyrrolidine-2-carboxamido)-5,6,7,8-tetrahydronaphthalen-1-yl)carbamoyl)-1,2,3,4-tetrahydronaphthalen-1-yl)pyrrolidine-2-carboxamide], the IC50 at cIAP2-BIR3 fell in the range of 1 to 10 nM; at cIAP1-BIR3 it was 1 to 10 nM; on XIAP-BIR3 it was 10 to 100 nM.
Take `CN[C@@H](C)C(=O)N[C@H](C(=O)N1CCC[C@H]1C(=O)N[C@@H]1CCCc2c(NC(=O)c3cccc4c3CCC[C@H]4NC(=O)[C@@H]3CCCN3C(=O)[C@@H](NC(=O)[C@H](C)NC)C(C)C)cccc21)C(C)C` [VII-A, (2S)-1-[(2S)-3-methyl-2-[(2S)-2-(methylamino)propanamido]butanoyl]-N-[(1R)-5-[[(5R)-5-[(2S)-1-[(2S)-3-methyl-2-[(2S)-2-(methylamino)propanamido]butanoyl]pyrrolidine-2-amido]-5,6,7,8-tetrahydronaphthalen-1-yl]carbamoyl]-1,2,3,4-tetrahydronaphthalen-1-yl]pyrrolidine-2-carboxamide]: the IC50 on cIAP2-BIR3 lay within 1 to 10 nM; on cIAP1-BIR3, 1 to 10 nM; on XIAP-BIR3 it was 10 to 100 nM.
In turn, `CC[C@H](NC(=O)[C@H](C)NC)C(=O)N1CCC[C@H]1C(=O)N[C@@H]1CCCc2c1cccc2N1CCN(c2cccc3c2CCC[C@H]3NC(=O)[C@@H]2CCCN2C(=O)[C@H](CC)NC(=O)[C@H](C)NC)CC1` [VIII-E, (2S,2'S)—N,N′-((1R,1′R)-piperazine-1,4-diylbis(1,2,3,4-tetrahydonaphthalene-5,1-diyl))bis(1-((S)-2-((S)-2-(methylamino)propanamido)butanoyl)pyrrolidine-2-carboxamide)] came in with a half-maximal inhibitory concentration (IC50) on cIAP1-BIR3 of 1 to 10 nM.
As for `CC[C@H](NC(=O)[C@H](C)NC)C(=O)N1CCC[C@H]1C(=O)N[C@@H]1CCOc2c(-c3cccc4c3OCC[C@H]4NC(=O)[C@@H]3CCCN3C(=O)[C@H](CC)NC(=O)[C@H](C)NC)cccc21` [Compound V-B, (2S)-1-[(2S)-2-[(2S)-2-(methylamino)propanamido]butanoyl]-N-[1(4R)-8-[(4R)-4-[(2S)-1-[(2S)-2-[(2S)-2-(methylamino)propanamido]butanoyl]pyrrolidine-2-amido]-3,4-dihydro-2H-1-benzopyran-8-yl]-3,4-dihydro-2H-1-benzopyran-4-yl]pyrrolidine-2-carboxamide], the figures for the IC50 at cIAP2-BIR3, at cIAP1-BIR3 and on XIAP-BIR3 were 10 to 100 nM, 1 to 10 nM and 10 to 100 nM, respectively.
Turning to `CN[C@@H](C)C(=O)N[C@H](C(=O)N1CCC[C@H]1C(=O)N[C@@H]1CCc2c(-c3cccc4c3CC[C@H]4NC(=O)[C@@H]3CCCN3C(=O)[C@@H](NC(=O)[C@H](C)NC)C3CCOCC3)cccc21)C1CCOCC1` [Compound V-R, (S)-1-((S)-2-((S)-2-(methylamino)propanamido)-2-(tetrahydro-2H-pyran-4-yl)acetyl)-N-((1R,1′R)-1′-((S)-1-((S)-2-((S)-2-(methylamino)propanamido)-2-(tetrahydro-2H-pyran-4-yl)acetyl)pyrrolidine-2-carboxamido)-2,2′,3,3′-tetrahydro-1H,1′H-[4,4′-biinden]-1-yl)pyrrolidine-2-carboxamide], the results for the IC50 on cIAP2-BIR3, at cIAP1-BIR3 and on XIAP-BIR3 were 10 to 100 nM, 1 to 10 nM and 10 to 100 nM, respectively.
For `CC[C@H](NC(=O)[C@H](C)NC)C(=O)N1CCC[C@H]1C(=O)N[C@@H]1CCCc2c(OCCCCCOc3cccc4c3CCC[C@H]4NC(=O)[C@@H]3CCCN3C(=O)[C@H](CC)NC(=O)[C@H](C)NC)cccc21` [Compound I-D, (2S)-1-[(2S)-2-[(2S)-2-(methylamino)propanamido]butanoyl]-N-[(1R)-5-[(5-[[(5R)-5-[(2S)-1-[(2S)-2-[(2S)-2-(methylamino)propanamido]butanoyl]pyrrolidine-2-amido]-5,6,7,8-tetrahydronaphthalen-1-yl]oxy]pentyl)oxy]-1,2,3,4-tetrahydronaphthalen-1-yl]pyrrolidine-2-carboxamide], the 50% inhibitory concentration (IC50) at cIAP2-BIR3 is 1 to 10 nM; on cIAP1-BIR3, 1 to 10 nM; at XIAP-BIR3 it was 10 to 100 nM.
Regarding `CN[C@@H](C)C(=O)N[C@H](C(=O)N1CCC[C@H]1C(=O)N[C@@H]1CCCc2c1cccc2N1CCN(c2cccc3c2CCC[C@H]3NC(=O)[C@@H]2CCCN2C(=O)[C@@H](NC(=O)[C@H](C)NC)C2CCCCC2)CC1)C1CCCCC1` [Compound VIII-C, (2S,2'S)—N,N′-((1R,1′R)-piperazine-1,4-diylbis(1,2,3,4-tetrahydronaphthalene-5,1-diyl))bis(1-((S)-2-cyclohexyl-2-((S)-2-(methylamino)propanamido)acetyl)pyrrolidine-2-carboxamide)], the IC50 on cIAP1-BIR3 was 1 to 10 nM.
In turn, `CN[C@@H](C)C(=O)N[C@H](C(=O)N1CCC[C@H]1C(=O)N[C@@H]1CCCc2c1cccc2N1CCN(c2cccc3c2CCC[C@H]3NC(=O)[C@@H]2CCCN2C(=O)[C@@H](NC(=O)[C@H](C)NC)C(C)C)CC1)C(C)C` [VIII-F, (2S,2'S)—N,N′-((1R,1′R)-piperazine-1,4-diylbis(1,2,3,4-tetrahydonaphthalene-5,1-diyl))bis(1-(methyl-L-alanyl-L-valyl)pyrrolidine-2-carboxamide)] displayed an IC50 on cIAP1-BIR3 of 1 to 10 nM.
For the molecule `CN[C@@H](C)C(=O)N[C@H](C(=O)N1CCC[C@H]1C(=O)N[C@@H]1CCCc2c1cccc2N1CCN(c2cccc3c2CCC[C@H]3NC(=O)[C@@H]2CCCN2C(=O)[C@@H](NC(=O)[C@H](C)NC)C(C)(C)C)CC1)C(C)(C)C` [Compound VIII-D, (2S,2′S)—N,N′-((1R,1′R)-piperazine-1,4-diylbis(1,2,3,4-tetrahydronaphthalene-5,1-diyl))bis(1-((S)-3,3-dimethyl-2-((S)-2-(methylamino)propanamido)butanoyl)pyrolidine-2-carboxamide)], at cIAP1-BIR3, the IC50 lay in the range of 1 to 10 nM.
